Source: US10889628B2, “Optogenetic inhibition of overactive neuronal activity” (Emory University, priority 2013, dated 2021)

Tests used:
cortical neuron cultures = experiment: Inhibition of evoked activity (action potential trains evoked by current injection) in cortical neuron cultures; format: cell-based; conditions: FIG. 5
Experimental: Trains of action potentials were evoked by 30 pA current injections.
Simultaneous patch clamp studies are conducted to determine cellular responses in (1) cells expressing both opsin and luciferase (i.e. both components in cis) and (2) cells expressing […] (i.e. both components in trans). As an alternative to co-infection, one can also deliver luciferase and inhibitory opsin together as a fusion protein. Various molecular strategies can also be employed (such as adding dimerizing or transmembrane domains) to facilitate co-localization of the luciferase and inhibitory opsin to the cell membrane.

neuron = experiment: Inhibition of evoked spikes in a neuron expressing eNpHR3.0-Nanolantern; format: cell-based; conditions: CTZ added

| Compound | effect on firing rate in control (uninfected) neurons (cortical neuron cultures) | luminescence signal during inhibition of evoked activity (neuron; FIG. 8 (top)) | evoked action potentials after CTZ (neuron; sub-threshold depolarizing current injection, FIG. 8) |
| --- | --- | --- | --- |
| Oc1ccc(Cc2nc3c(Cc4ccccc4)nc(-c4ccc(O)cc4)cn3c2O)cc1 [CTZ, Coelenterazine, reference compound] | did not have any significant effect |  |  |
| eNpHR3.0-Nanolantern: Fusion cassette of enhanced halorhodopsin eNpHR3.0 and Nanolantern, amino acid sequence SEQ ID NO: 11 |  | increase in luminescence signal | completely attenuate evoked action potentials |
